Experimental data: patent US11377442B2, “Small molecule agonists and antagonists of NR2F6 activity” (ZANDER THERAPEUTICS, INC., priority 2016, dated 2022)
Where two headings read alike, the source gives them in different places.

Legend:
Assay type in all cases: cell-based
Renilla = Renilla signal in NR2F6 agonist screening, cmpd/DMSO; conditions: for fold induction at 2 µM / fold induction at 10 µM / fold induction at 40 µM: Renilla
NR2F6 = molecular target: T1, NR2F6 (Homo sapiens, UniProt P10588); test: NR2F6 agonist screening, Firefly signal cmpd/DMSO; conditions: for Firefly F4, cmpd/DMSO (mean): Table 14; for Firefly, cmpd/DMSO repeat 1 / Firefly, cmpd/DMSO repeat 2: first set screening, 10 μM
T1 construct: expressed in transfected cells; also transient transfection
T1 sequence (P10588 1-404): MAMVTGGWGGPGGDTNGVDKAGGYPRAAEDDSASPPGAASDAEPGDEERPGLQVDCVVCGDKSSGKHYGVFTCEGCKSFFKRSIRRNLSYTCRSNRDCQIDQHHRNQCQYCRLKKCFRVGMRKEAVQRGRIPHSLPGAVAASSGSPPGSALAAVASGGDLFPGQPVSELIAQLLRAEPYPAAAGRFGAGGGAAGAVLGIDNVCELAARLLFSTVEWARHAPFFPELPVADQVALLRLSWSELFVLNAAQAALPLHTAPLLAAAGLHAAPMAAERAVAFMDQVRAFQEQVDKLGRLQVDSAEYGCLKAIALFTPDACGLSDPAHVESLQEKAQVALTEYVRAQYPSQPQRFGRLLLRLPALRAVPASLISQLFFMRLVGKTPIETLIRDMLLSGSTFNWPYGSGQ

HEK293 pGL4 = test: Firefly_pGL signal, cmpd/DMSO (pGL4 control cells); conditions: Homo sapiens, HEK293, Table 14, read-out: Firefly pGL4, cmpd/DMSO (mean)
Renilla_ERa = test: Renilla signal in ERα counterscreen (Renilla_ERa); conditions: ERα transient transfection, 10 μM
ERα = molecular target: T2, ERα (Homo sapiens, UniProt P03372); test: Counterscreening, Firefly signal with ERα transient transfection (Firefly_ERa); conditions: ERα transient transfection, 10 μM
T2 construct: expressed in transfected cells
T2 sequence (P03372 1-595): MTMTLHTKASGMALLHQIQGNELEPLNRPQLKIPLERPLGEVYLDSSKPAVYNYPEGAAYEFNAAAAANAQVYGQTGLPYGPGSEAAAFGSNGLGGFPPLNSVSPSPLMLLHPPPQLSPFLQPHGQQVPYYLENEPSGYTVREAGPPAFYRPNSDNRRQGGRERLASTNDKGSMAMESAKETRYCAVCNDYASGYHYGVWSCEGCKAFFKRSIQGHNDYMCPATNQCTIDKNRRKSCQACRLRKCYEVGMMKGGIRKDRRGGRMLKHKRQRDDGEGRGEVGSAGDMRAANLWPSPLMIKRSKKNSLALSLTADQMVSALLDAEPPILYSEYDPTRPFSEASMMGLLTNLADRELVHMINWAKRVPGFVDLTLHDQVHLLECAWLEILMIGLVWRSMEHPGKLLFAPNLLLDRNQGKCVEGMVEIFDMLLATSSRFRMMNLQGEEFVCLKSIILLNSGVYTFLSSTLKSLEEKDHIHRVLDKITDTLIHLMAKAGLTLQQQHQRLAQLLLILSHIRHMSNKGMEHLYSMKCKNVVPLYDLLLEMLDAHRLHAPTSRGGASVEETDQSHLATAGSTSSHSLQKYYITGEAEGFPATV
Procedure: The methodology for screening candidate compounds as NR2F6 agonists was as follows: For primary screening, hit criteria was ACT %>DMSO control+5*SD (DSO control) at 10 μM, or any compound with S/B>2. For rescreening, hit criteria was ACT %>DMSO control+3*SD (DSO control) in each replicate at 10 μM. For counterscreening, hit criteria was mean ACT<DMSO control+3*SD (DMSO control) with ERα transient transfection in duplicate at 10 μM.

[1] = Table 14, read-out: Renilla F4, cmpd/DMSO (mean)
[2] = Table 14, 10 uM, read-out: Renilla F4, cmpd/DMSO (mean)
[3] = first set screening, 10 μM, repeat 1, read-out: Renilla, cmpd/DMSO repeat 1
[4] = first set screening, 10 μM, repeat 2, read-out: Renilla, cmpd/DMSO repeat 2
[5] = repeat 1, read-out: Renilla_ERa, cmpd/DMSO repeat 1
[6] = repeat 2, read-out: Renilla_ERa, cmpd/DMSO repeat 2
[7] = first set screening, 10 μM, repeat 1
[8] = first set screening, 10 μM, repeat 2

SMILES	Firefly F4, cmpd/DMSO (mean) (NR2F6; 2 uM)	Firefly F4, cmpd/DMSO (mean) (NR2F6; 10 uM)	Firefly F4, cmpd/DMSO (mean) (NR2F6; 40 uM)	Firefly, cmpd/DMSO repeat 1 (NR2F6)	Firefly, cmpd/DMSO repeat 2 (NR2F6)	Firefly_ERa, cmpd/DMSO repeat 1 (ERα)	Firefly_ERa, cmpd/DMSO repeat 2 (ERα)	fold induction at 2 µM (Renilla; [1])	fold induction at 10 µM (Renilla; [2])	fold induction at 40 µM (Renilla; [1])	fold induction at 10 µM (Renilla; [3])	fold induction at 10 µM (Renilla; [4])	fold induction at 2 µM (HEK293 pGL4)	fold induction at 10 µM (HEK293 pGL4)	fold induction at 40 µM (HEK293 pGL4)	fold induction at 10 µM (Renilla_ERa; [5])	fold induction at 10 µM (Renilla_ERa; [6])	further results
COc1ccc(-c2cn3cccc(C)c3n2)cc1 [Compound 19]	1.7	1.0	0.5	2.2	1.7	2.3	2.4	1.1	1	0.6	1.6	1.7	1.9	1.3	0.9	1.2	1	
Cc1ccn2cc(-c3ccc(F)cc3)cc2c1 [Compound 17]	1.9	1.2	1.3	2.2	2.4	2.5	2.2	0.8	1	1	1.3	1.4	1.7	1.6	1.3	1.3	1	
O=C(COc1ccccc1C(=O)N1CCOCC1)NCCc1ccccc1 [Compound 22]	1.3	1.4	0.6	2.1	2.9	1.5	2.2	0.8	1.1	1	1.1	1.3	1.6	1	1.5	0.8	1.1	
Cc1ccnc(NC(=O)c2cc3sc4ccccc4c3s2)c1 [Compound 20]				2.2	2.1	1.5	1.7											Renilla, cmpd/DMSO repeat 1 (Renilla; [7]): 4.4; Renilla, cmpd/DMSO repeat 2 (Renilla; [8]): 4.8; Renilla_ERa, cmpd/DMSO repeat 1 (Renilla_ERa; repeat 1): 1.1; Renilla_ERa, cmpd/DMSO repeat 2 (Renilla_ERa; repeat 2): 0.9
CCc1ccc(OCC(=O)Nc2cc(-c3nc4cc(C)ccc4o3)ccc2C)cc1 [Compound 24]				2.0	2.3	1.3	1.6											Renilla, cmpd/DMSO repeat 1 (Renilla; [7]): 2.4; Renilla, cmpd/DMSO repeat 2 (Renilla; [8]): 2.2; Renilla_ERa, cmpd/DMSO repeat 1 (Renilla_ERa; repeat 1): 0.9; Renilla_ERa, cmpd/DMSO repeat 2 (Renilla_ERa; repeat 2): 1.0

Second part, led by results:

Firefly F4, cmpd/DMSO (mean) (NR2F6; 2 uM)	Firefly F4, cmpd/DMSO (mean) (NR2F6; 10 uM)	Firefly F4, cmpd/DMSO (mean) (NR2F6; 40 uM)	Firefly, cmpd/DMSO repeat 1 (NR2F6)	Firefly, cmpd/DMSO repeat 2 (NR2F6)	Firefly_ERa, cmpd/DMSO repeat 1 (ERα)	Firefly_ERa, cmpd/DMSO repeat 2 (ERα)	SMILES	fold induction at 2 µM (Renilla; [1])	fold induction at 10 µM (Renilla; [2])	fold induction at 40 µM (Renilla; [1])	fold induction at 10 µM (Renilla; [3])	fold induction at 10 µM (Renilla; [4])	fold induction at 2 µM (HEK293 pGL4)	fold induction at 10 µM (HEK293 pGL4)	fold induction at 40 µM (HEK293 pGL4)	fold induction at 10 µM (Renilla_ERa; [5])	fold induction at 10 µM (Renilla_ERa; [6])	further results
0.5	0.5	0.4	3.4	4.1	1.0	1.0	Cc1cc(NC(=O)CCS(=O)(=O)c2nc(-c3ccc4c(c3)OCO4)cc(C(F)(F)F)n2)no1 [Compound C1]	2.1	0.2	0.2	4.1	1.5	0.7	0.7	0.6	1.3	1.2	activity (in words) (NR2F6; screening result): particularly good activity
0.9	0.8	0.8	2.2	1.7	1.6	2.0	O=C(Nc1cccc(O)c1)c1cc(-c2ccc(Cl)c(Cl)c2)on1 [Compound C5]	0.7	0.5	1.1	1.3	1.4	1.3	1.2	1	1.2	1	
1.5	1.1	0.9	2.0	2.0	1.8	1.9	Cc1ccc(-c2nc3ccccc3c(=O)[nH]2)cc1 [Compound C3]	1	0.9	0.9	1.6	1.2	1.1	1.3	1	1.1	1.2	
1.1	0.8	0.7	2.5	2.5	1.6	1.7	CCOC(=O)c1cnn2c(-c3ccc(Cl)cc3)ccnc12 [Compound C4]	0.6	0.5	0.5	1.6	1.5	1	0.9	1.3	1.1	1.2	
1.4	0.6	0.4	2.6	1.9	2.2	1.4	CCc1cc(C(=O)Nc2ccn(Cc3ccc(C)cc3)n2)no1 [Compound C6]	0.7	0.6	0.5	1.2	0.9	1.3	1.3	1	1	1	
			2.1	2.6	1.0	1.3	COc1cc(Nc2c3c(nc4ccc(Cl)cc24)CCC3)cc(OC)c1OC [Compound C10]				3.1	1.6				0.7	0.8	
